In this assay the test system is mouse bone marrow derived macrophages (BMDMs). Briefly: BMDM transwell migration assay. Particulars: 10 hours, 10% FBS as chemo-attractant. The format is cell-based, C57BL/6 mouse. The text has this:
Figure 6 ERG240 treatment results in reduced macrophage infiltration in CIA and crescentic glomerulonephritis. (a) Inhibition of murine BMDM migration in vitro in the presence of different concentrations of ERG240 by transwell migration assay (left panel, results are presented as the average of four experiments). The drug had no effect on cell viability (right panel, results are presented as the average of three experiments). (b) IHC analysis of CIA joints for expression of F4/80. Representative images show F4/80+ cells (indicated with an arrow). F4/80+ cell quantification is shown on the right panel. (c) Representative images showing glomerular ED1 (rat CD68)-positive cells in ERG240 treated animals following NTN. Percentage of glomerular ED1-positive cell quantification is shown on the right panel. Error bars are s.e.m. […]
The migration of BMDMs was assessed using a modified Bo yden chamber methodology. […]
To determine the effect of ERG240 on the total number of BMDMs, cell s were plated onto a 96-well plate at a density of 5,000 cells per well in complete media and allowed to adhere overnight. The cells were then exposed to various drug concentrations overnight and the cell population was quantified with CyQuant Cell Proliferation kit (Life Technologies) using triplicates, in two independent experiments. For hMDMs, cell viability was determined using the alamarBlue® Assa y (Invitrogen). […]

One may read the IC50 as the midpoint of a concentration-inhibition curve. `CC(=O)C(C)CCC(=O)O` (stereo not shown) [ERG240]: the half-maximal inhibitory concentration (IC50) was 5 to 10 mM.

(Values after PMC5510229, “BCAT1 controls metabolic reprogramming in activated human macrophages and is associated with inflammatory diseases” (Nature Communications, 2017).)
